Patent publication US20170305922A1, “CARM1 INHIBITORS AND USES THEREOF” (Epizyme, Inc., priority 2014, published 2017)

Legend:
Human CARM1 (PRMT4) = target: T1, Human CARM1 (PRMT4) (Homo sapiens, UniProt Q86X55); experiment: CARM1 enzyme assay on peptide substrates (3H-SAM Flashplate); conditions: Biochemical assay; CARM1 0.25 nM, 3H-SAM 30 nM, peptide 250 nM; read-out: Biochem IC50
T1 construct: Flag-CARM1-His was eluted with 200 ug/ml FLAG peptide in buffer A; made in house; host or cells: HEK 293F cells infected with recombinant baculovirus (pFastBacMam)
T1 sequence (Q86X55 1-585 isoform Q86X55-1): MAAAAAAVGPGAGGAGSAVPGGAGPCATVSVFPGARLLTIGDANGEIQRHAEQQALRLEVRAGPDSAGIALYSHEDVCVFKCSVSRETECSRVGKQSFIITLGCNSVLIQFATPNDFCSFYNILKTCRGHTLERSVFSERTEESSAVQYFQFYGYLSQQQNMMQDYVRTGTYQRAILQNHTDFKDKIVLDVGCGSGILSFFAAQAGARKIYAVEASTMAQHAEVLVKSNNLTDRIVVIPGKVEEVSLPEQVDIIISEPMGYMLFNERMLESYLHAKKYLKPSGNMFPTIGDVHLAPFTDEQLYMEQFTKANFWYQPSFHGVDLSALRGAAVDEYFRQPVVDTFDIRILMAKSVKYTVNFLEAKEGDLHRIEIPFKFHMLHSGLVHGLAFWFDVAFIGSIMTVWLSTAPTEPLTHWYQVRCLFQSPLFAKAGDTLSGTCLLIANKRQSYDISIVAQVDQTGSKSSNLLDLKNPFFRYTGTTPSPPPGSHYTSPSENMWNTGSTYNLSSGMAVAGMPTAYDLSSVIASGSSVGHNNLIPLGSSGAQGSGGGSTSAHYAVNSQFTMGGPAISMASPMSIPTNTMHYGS

[1] = system: asymmetric di-methyl PABP1 in RKO cells; experiment: RKO methylation assay: In Cell Western (ICW) for asymmetric di-methyl PABP1 (PABP1me2a); conditions: Homo sapiens, RKO, 48 h, Cellular-based (PABP1me2a) ICW (In Cell Western) assay
How it was run: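 In-cell western on compound-exposed RKO cells (48 hours): asymmetric di-methyl PABP1 detected by antibody at 800 nm, DNA content by DRAQ5 at 700 nm. Percent inhibition from signal ratios against DMSO (minimum) and 20 μM reference compound (maximum) wells; IC50 curves fitted from triplicates.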

SMILES	IC50 (Human CARM1 (PRMT4)) [nM]	IC50 [1] [nM]
CNC[C@@H](O)COc1ccc(Cl)c(-c2nc(-c3c(C)noc3C)c(C)c(N3CC4(CN(C(=O)OCC(F)F)C4)C3)n2)c1 [Example 220]	4.2	221
CNC[C@@H](O)COc1ccc(Cl)c(-c2nc(-c3c(Cl)cnn3C)c(C)c(N3Cc4nccnc4C3)n2)c1 [Example 341]	2.7	184
CCOC(=O)N1CC2=C(C1)CN(c1nc(-c3cc(OC[C@H](O)CNC)ccc3Cl)nc(-c3c(C)noc3C)c1C)C2 [Example 176]	2.7	26
CNC[C@@H](O)COc1ccc(Cl)c(-c2nc(-c3c(C)noc3C)c(C)c(N3CC4(CCC4F)C3)n2)c1 (some centres unmarked) [Example 278]	4.11	544
CNC[C@@H](O)COc1ccc(Cl)c(-c2nc(-c3c(C)noc3C)c(C)c(N3CC(F)(C(=O)N4CCC4)C3)n2)c1 [Example 184]	6.1	488
CNC[C@@H](O)COc1ccc(C(F)(F)F)c(-c2nc(-c3c(C)noc3C)c(C)c(N3Cc4cnn(C(C)C)c4C3)n2)c1 [Example 23]	4.7	111
CC[C@@H]1CN(c2nc(-c3cc(OC[C@H](O)CNC)ccc3Cl)nc(-c3c(C)noc3C)c2C)CCN1S(C)(=O)=O [Example 202]	3.3	233
CNC[C@@H](O)COc1ccc(Cl)c(-c2nc(-c3c(C)noc3C)c(C)c(N3CC4(CC(C(=O)N5CCC5)C4)C3)n2)c1 [Example 163]	6.2	292
CNC[C@@H](O)COc1ccc(Cl)c(-c2nc(-c3c(C)noc3C)c(C)c(N3Cc4cnc(NCCO)nc4C3)n2)c1 [Example 197]	2.6	381
CNC[C@@H](O)COc1ccc(Cl)c(-c2nc(-c3c(C)noc3C)c(C)c(N3Cc4ccc(O[C@H]5CCOC5)nc4C3)n2)c1 [Example 254]	2.39	37.1
CNC[C@@H](O)COc1ccc(Cl)c(-c2nc(-c3c(C)c(Cl)nn3C)c(C)c(N3CC4(CC(C#N)C4)C3)n2)c1 [Example 332]	4.1	80.9
CNC[C@@H](O)COc1ccc(Cl)c(-c2nc(-c3c(C)noc3C)c(C)c(N3CC4(CCC(C(=O)N5CCC5)CC4)C3)n2)c1 [Example 174]	3.9	271
CC[C@@H]1CN(c2nc(-c3cc(OC[C@H](O)CNC)ccc3Cl)nc(-c3c(C)noc3C)c2C)CCN1C(=O)OC [Example 205]	3.7	202
CNC[C@@H](O)COc1ccc(Cl)c(-c2nc(-c3c(C)noc3C)c(C)c(N3CC4=C(C3)CN(C3CC3)C4)n2)c1 [Example 211]	1.7	75
CNC[C@@H](O)COc1ccc(Cl)c(-c2nc(-c3c(C)noc3C)c(C)c(N3CC4(CCCN(C(=O)OC)C4)C3)n2)c1 [Example 296]	6.4	137
CCOc1ncc2c(n1)CN(c1nc(-c3cc(OC[C@H](O)CNC)ccc3Cl)nc(-c3c(Cl)cnn3C)c1C)C2 [Example 307]	3.86	45.4
CNC[C@@H](O)COc1ccc(Cl)c(-c2nc(-c3c(Cl)cnn3C)c(C)c(N3Cc4cnc(N5CCC5)nc4C3)n2)c1 [Example 340]	2	17.5
CNC[C@@H](O)COc1ccc(Cl)c(-c2nc(C#CC3CCN(C(=O)OC)CC3)c(C)c(-c3c(C)noc3C)n2)c1 [Example 86]	97	283
CNC[C@@H](O)COc1ccc(Cl)c(-c2nc(-c3c(C)noc3C)c(C)c(N3CC4(CC(OCC(F)F)C4)C3)n2)c1 [Example 134]	8.5	45
